The target of this assay is Cytochrome P450 2C9 (Homo sapiens, UniProt P11712). Briefly: Inhibition of recombinant CYP2C9 by fluorescence inhibition assay. It counts as ADME.

The structures appear in SMILES notation. Where only a bound is given, the exact number is not on record here.

For 14 compounds, IC50 results are on record in ChEMBL document CHEMBL1137572, “CYP2C9 structure-metabolism relationships: substrates, inhibitors, and metabolites” (J Med Chem, 2007).

Cytochrome P450 2C9, sequence (P11712 whole entry): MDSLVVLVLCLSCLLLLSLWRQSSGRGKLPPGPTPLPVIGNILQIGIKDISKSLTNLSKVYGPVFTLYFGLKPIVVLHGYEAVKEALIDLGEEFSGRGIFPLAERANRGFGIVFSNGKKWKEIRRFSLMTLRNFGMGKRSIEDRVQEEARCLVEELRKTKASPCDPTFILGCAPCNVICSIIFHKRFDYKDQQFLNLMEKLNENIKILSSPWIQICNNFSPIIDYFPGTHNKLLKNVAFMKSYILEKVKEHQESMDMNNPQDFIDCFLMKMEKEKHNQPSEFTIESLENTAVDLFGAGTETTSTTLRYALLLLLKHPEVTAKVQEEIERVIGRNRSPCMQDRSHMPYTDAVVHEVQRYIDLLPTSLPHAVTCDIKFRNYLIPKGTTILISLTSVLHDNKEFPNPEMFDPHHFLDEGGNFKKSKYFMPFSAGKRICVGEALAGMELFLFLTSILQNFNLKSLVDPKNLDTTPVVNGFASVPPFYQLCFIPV

Turning to `NS(=O)(=O)c1ccc(-n2nc(C(F)(F)F)cc2-c2ccc(C(F)(F)F)cc2)cc1`, the IC50 came out at 17 µM.
The same measure for `CCOC(=O)c1ccc(-n2nc(C(F)(F)F)cc2-c2ccc(C(F)(F)F)cc2)cc1`: greater than 40 µM; for `CCOC(=O)c1ccc(-n2nc(C(F)(F)F)cc2-c2ccc(C)cc2)cc1`: greater than 40 µM.
The same measure for `CSc1ccc(-n2nc(C(F)(F)F)cc2-c2ccc(C)cc2)cc1`: greater than 40 µM.
As to `Cc1ccc(-c2cc(C(F)(F)F)nn2-c2ccc(S(N)(=O)=O)cc2)cc1` [CELECOXIB], the IC50 turned out to be 10 µM.
With `Cc1ccc(-c2cc(C(F)(F)F)nn2-c2ccc(C(=O)O)cc2)cc1` the figure was greater than 40 µM; with `Cc1ccc(-c2cc(C(F)(F)F)nn2-c2ccc(CC(=O)O)cc2)cc1`, greater than 40 µM; with `O=C(O)c1ccc(-n2nc(C(F)(F)F)cc2-c2ccc(C(F)(F)F)cc2)cc1`, greater than 40 µM.
The same measure for `Cc1ccc(-c2cc(C(=O)O)nn2-c2ccc(S(N)(=O)=O)cc2)cc1`: greater than 40 µM; for `Cc1ccc(-c2cc(-c3ccccc3)nn2-c2ccc(S(N)(=O)=O)cc2)cc1`: 16 µM; for `Cc1ccc(-c2cc(C(F)(F)F)nn2-c2ccc([S+](C)[O-])cc2)cc1` (centres undefined): 26 µM.
Take `Cc1ccc(-c2cc(C(F)(F)F)nn2-c2ccc(S(C)(=O)=O)cc2)cc1`: the IC50 came to 16 µM.
The same measure for `O=C(O)Cc1ccc(-n2nc(C(F)(F)F)cc2-c2ccc(C(F)(F)F)cc2)cc1`: 25 µM.
For `Cc1ccc(-c2cc(C(F)(F)F)nn2-c2ccc(C)cc2)cc1`, the IC50 is greater than 40 µM.
